Literature values in patent EP0374532B1, “Improved phase separation-microencapsulated pharmaceutical compositions useful for alleviating dental disease” (AMERICAN CYANAMID COMPANY, priority 1988, dated 1990).

Conditions: human periodontal fluid versus serum

levels in human periodontal fluid higher than serum levels: five
SMILES: CN(C)c1ccc(O)c2c1C[C@H]1C[C@H]3[C@H](N(C)C)C(O)=C(C(N)=O)C(=O)[C@@]3(O)C(O)=C1C2=O [minocycline, 7-dimethylamino-6-deoxy-6-demethyltetracycline]
